Measured values as given in the NIST ThermoML archive (doi:10.1016/j.fluid.2013.01.002).

Columns and labels:
[1] = 298.15 K; 101.33 kPa; Liquid; Vibrating tube method
[2] = refractive index (Na D-line) (dimensionless); settings: 298.15 K; 101.33 kPa; Liquid; Standard Abbe refractometry
[3] = xn = mol fraction of the nth substance listed; settings: 298.15 K, 101 kPa, Liquid, Vibrating tube method
[4] = refractive index (Na D-line) (dimensionless); xn = mol fraction of the nth substance listed; settings: 298.15 K, 101 kPa, Liquid, Standard Abbe refractometry

CCCCCCCCCCC [undecane]
Settings	mass density [kg/m3]	refractive index
[1]	736.73	–
[2]	–	1.415

CCCCCCCCN(CCCCCCCC)CCCCCCCC [trioctylamine] + CCCCCCCCCCCC
Settings	mass density, [3] [kg/m3]	refractive index, [4]
x1 = 0.0501	751.32	1.4222
x1 = 0.1	756.64	1.4249
x1 = 0.1998	765.98	1.4287
x1 = 0.3	773.95	1.4323
x1 = 0.4	780.79	1.4354
x1 = 0.5001	786.75	1.4381
x1 = 0.6023	792.12	1.4403
x1 = 0.7001	796.7	1.4426
x1 = 0.8025	801	1.4444
x1 = 0.9002	804.65	1.4461
x1 = 0.9499	806.35	1.4468

CCCCCCCCN(CCCCCCCC)CCCCCCCC [trioctylamine]
Settings	mass density [kg/m3]	refractive index
[1]	807.9	–
[2]	–	1.4476

CCCCCCCCCCCC [dodecane]
Settings	mass density [kg/m3]	refractive index
[1]	745.52	–
[2]	–	1.4195

CCCCCCCCN(CCCCCCCC)CCCCCCCC [trioctylamine] + CCCCCCCCCCCCO
Settings	mass density, [3] [kg/m3]	refractive index, [4]
x1 = 0.0498	828.8	1.4416
x1 = 0.1011	827.31	1.4424
x1 = 0.2014	824.49	1.4437
x1 = 0.3012	821.97	1.4447
x1 = 0.4001	819.63	1.4455
x1 = 0.5	817.37	1.4461
x1 = 0.6005	815.19	1.4465
x1 = 0.6995	813.14	1.4469
x1 = 0.799	811.21	1.4473
x1 = 0.8999	809.43	1.4475
x1 = 0.9504	808.63	1.4476

CCCCCCCCN(CCCCCCCC)CCCCCCCC [trioctylamine] + CCCCCCCCCCC
Settings	mass density, [3] [kg/m3]	refractive index, [4]
x1 = 0.05	743.91	1.4176
x1 = 0.1	750.33	1.4199
x1 = 0.2017	761.55	1.4243
x1 = 0.3001	770.56	1.4285
x1 = 0.4002	778.34	1.4319
x1 = 0.4997	785.01	1.4351
x1 = 0.6003	790.89	1.438
x1 = 0.6989	795.96	1.4407
x1 = 0.7996	800.52	1.4434
x1 = 0.9003	804.51	1.4455
x1 = 0.9497	806.25	1.4466

CCCCCCCCCCCCO [dodecan-1-ol]
Settings	mass density [kg/m3]	refractive index
[1]	830.37	–
[2]	–	1.4407
